What was measured:
[1] = system: LiCl-induced anticipatory nausea in rats; assay: Anticipatory nausea studies (LiCl-paired context, gapes); format: in vivo, rat; conditions: for amelioration of LiCl-induced anticipatory nausea: 20 mg/Kg; for Mean number of gapes elicited by a LiCl-paired context: 20 mg/Kg pretreatment, vehicle 22 gapes
Source text: Novel compounds were studied for their ability to ameliorate LiCl-induced anticipatory nausea in rats following the procedures described in Limebeer, C. L. et al Psychopharmacology (2014) 231:603-612. […] Mean number of gapes elicited by a LiCl-paired context in an anticipatory nausea test following pretreatment with a MAGL inhibitor compound 46 and dual FAAH/MAGL inhibitor 52 were 8 and 3 respectively, compared to animals treated with vehicle which show 22 gapes.

ΔTM rat FAAH = biological target: T1, ΔTM rat FAAH (Rattus norvegicus, UniProt P97612); assay: Fluorescent assay protocol for ΔTM rat FAAH (AAMCA substrate); format: biochemical; conditions: 15 min preincubation, read-out: IC50 rFAAH
T1 construct: Preparation of Transmembrane Domain-Deleted Rat FAAH (ΔTM rFAAH); made in house; host or cells: E. coli
T1 sequence (P97612 30-579 limits assumed): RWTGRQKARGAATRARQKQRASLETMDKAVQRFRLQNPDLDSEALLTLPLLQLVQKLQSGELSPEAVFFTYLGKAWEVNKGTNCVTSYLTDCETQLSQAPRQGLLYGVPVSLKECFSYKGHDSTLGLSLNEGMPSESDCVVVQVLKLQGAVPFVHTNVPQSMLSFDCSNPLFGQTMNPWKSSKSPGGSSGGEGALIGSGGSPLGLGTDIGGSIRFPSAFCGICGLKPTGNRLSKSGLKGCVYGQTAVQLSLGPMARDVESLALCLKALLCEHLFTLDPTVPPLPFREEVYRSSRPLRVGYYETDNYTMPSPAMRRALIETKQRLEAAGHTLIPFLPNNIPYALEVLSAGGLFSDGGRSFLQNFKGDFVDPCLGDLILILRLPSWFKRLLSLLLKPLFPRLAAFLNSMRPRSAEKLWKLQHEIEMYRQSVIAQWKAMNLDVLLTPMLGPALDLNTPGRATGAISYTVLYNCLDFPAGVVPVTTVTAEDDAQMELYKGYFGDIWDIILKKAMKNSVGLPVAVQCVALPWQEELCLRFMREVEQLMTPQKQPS
How it was run: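 ΔTM rat FAAH (15 μg) was pre-incubated 15 min at 25° C with compound (screening at 1, 10 and 100 μM), then reacted with the fluorigenic substrate AAMCA. Percent inhibition came from fluorescence at 3 h (linear kinetics) relative to no-inhibitor controls, in triplicate.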

Human FAAH (MBPΔTMhFAAH) = biological target: T2, Human FAAH (MBPΔTMhFAAH) (Homo sapiens, UniProt O00519); assay: Fluorescent assay protocol for hFAAH; format: biochemical; conditions: human FAAH (MBP fusion, ΔTM), procedure as for rFAAH
T2 construct: made in house; host or cells: E. coli (pMALcE4 vector)
T2 sequence (O00519 30-579 limits assumed): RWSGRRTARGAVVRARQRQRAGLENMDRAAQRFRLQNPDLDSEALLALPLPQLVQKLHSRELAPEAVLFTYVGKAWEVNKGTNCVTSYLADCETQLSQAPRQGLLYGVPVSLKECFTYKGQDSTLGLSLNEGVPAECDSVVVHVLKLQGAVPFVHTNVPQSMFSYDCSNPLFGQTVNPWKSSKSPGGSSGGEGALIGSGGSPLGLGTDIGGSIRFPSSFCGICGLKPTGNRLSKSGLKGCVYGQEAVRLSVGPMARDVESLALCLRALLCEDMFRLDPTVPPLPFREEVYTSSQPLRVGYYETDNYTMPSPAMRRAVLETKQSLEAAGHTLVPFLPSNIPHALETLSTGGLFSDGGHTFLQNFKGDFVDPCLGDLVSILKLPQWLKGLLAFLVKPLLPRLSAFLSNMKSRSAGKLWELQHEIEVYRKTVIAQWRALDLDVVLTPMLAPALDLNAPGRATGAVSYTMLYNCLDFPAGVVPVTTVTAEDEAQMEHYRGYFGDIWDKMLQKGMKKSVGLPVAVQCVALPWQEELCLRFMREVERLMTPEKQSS
How it was run: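 MBP-fused ΔTM human FAAH from E. coli, pre-incubated 15 min at 25 °C with compound in 50 mM HEPES, 1 mM EDTA, 0.1% BSA, pH 7.4 (DMSO below 8%). Substrate AAMCA 20 μM (2×Km); fluorescence (ex 360/em 460) at 3 h gave % inhibition vs uninhibited control, triplicate, IC50 fitted.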

[2] = system: human prostate cancer PC-3M cells; assay: Xenograft model of advanced prostate cancer; format: in vivo, mouse; conditions: nude mice, PC-3M xenograft, 20 mg/kg daily i.p. for 21 days
Experimental: Compounds were studied for their abilities to retard tumor growth in mouse xenograft model expressing aggressive human prostate cancer PC-3M cells. Tumors were established in immunodeficient nude mice (Taconic Farms) according to standard protocol and mice were divided in two groups. Mouse in each group was injected intraperitoneally (i.p.) with vehicle or compounds (20 mg/kg daily) for 21 days. Tumor sizes were measured with callipers every 3 days.

Rat MAGL (rMAGL) = biological target: T3, Rat MAGL (rMAGL) (Rattus norvegicus, UniProt Q8R431); assay: Fluorescent assay protocol for rMAGL; format: biochemical; conditions: recombinant rat MAGL, procedure as for hMAGL; read-out: IC50 rMAGL
T3 construct: made in house; host or cells: E. coli
T3 sequence (Q8R431 1-303): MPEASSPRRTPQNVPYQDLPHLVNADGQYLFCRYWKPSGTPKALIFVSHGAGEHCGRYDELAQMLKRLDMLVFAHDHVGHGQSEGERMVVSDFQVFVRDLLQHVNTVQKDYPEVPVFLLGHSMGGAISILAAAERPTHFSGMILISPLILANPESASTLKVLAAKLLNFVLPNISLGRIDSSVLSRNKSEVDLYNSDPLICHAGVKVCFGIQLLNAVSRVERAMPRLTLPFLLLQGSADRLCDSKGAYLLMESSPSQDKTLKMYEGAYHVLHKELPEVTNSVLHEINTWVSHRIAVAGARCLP
How it was run: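 Rat MAGL run as for the human enzyme: AHMMCE substrate hydrolysis to fluorescent coumarin followed at 25° C. for 120 min, read every 15 min at 360/460 nm.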

Human MAGL (hMAGL) = biological target: T4, Human MAGL (hMAGL) (Homo sapiens, UniProt Q99685); assay: Fluorescent assay protocol for hMAGL (AHMMCE substrate); format: biochemical; conditions: recombinant human MAGL, AHMMCE substrate, 15 min preincubation; read-out: IC50 hMAGL
T4 construct: hexahistidine; made in house; host or cells: E. coli
T4 sequence (Q99685 1-303): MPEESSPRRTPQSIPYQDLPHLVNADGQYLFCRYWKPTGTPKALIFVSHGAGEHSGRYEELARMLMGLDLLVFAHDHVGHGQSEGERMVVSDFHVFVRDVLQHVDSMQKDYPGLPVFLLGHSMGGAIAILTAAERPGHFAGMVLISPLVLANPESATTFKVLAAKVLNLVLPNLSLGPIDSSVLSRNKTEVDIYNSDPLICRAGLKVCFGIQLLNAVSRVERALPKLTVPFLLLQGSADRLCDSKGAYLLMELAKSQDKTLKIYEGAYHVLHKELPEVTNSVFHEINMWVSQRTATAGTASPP
How it was run: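 Hydrolysis of AHMMCE by human MAGL was monitored at 25°C for 120 min, with fluorescence at 360/460 nm recorded every 15 min and converted to 4-methylcoumarin using external standards. IC50 values were derived from triplicate wells at each inhibitor concentration.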

[3] = Blood brain barrier (BBB) permeability studies; conditions: brain and plasma; blood-brain distribution, in vivo; read-out: brain/plasma ratio
Source text: Novel compounds were studied for their abilities to cross the blood brain barrier based on procedures adapted from Cluny, et al (2010), British journal of pharmacology 161: 629; Rahn, et al (2011) Pharmacology biochemistry, and behavior 98: 493; Wood et al (2013) Life sciences 92: 482.

SMILES: N#Cc1cccc(OC(=O)N2CCC(C(c3ccccc3)c3ccccc3)CC2)c1 [Example 46, 3-Cyanophenyl 4-benzhydrylpiperidine-1-carboxylate]
- amelioration of LiCl-induced anticipatory nausea [1]: ameliorated anticipatory nausea
- Mean number of gapes elicited by a LiCl-paired context [1]: 8
- IC50 (ΔTM rat FAAH): 0.01 to 0.1 µM
- IC50 (Human FAAH (MBPΔTMhFAAH)): 0.01 to 0.1 µM
- reduction in tumor sizes ([2]; compared to vehicle): 43%
- tumor sizes ([2]; vehicle 185 mm^3): 105 mm^3

SMILES: C[C@H]1CN(C(=O)Nc2cccc(-c3cccc(C(N)=O)c3)c2)CCN1Cc1ccc2ccccc2n1 [Example 1, (S)—N-(3′-carbamoyl-[1,1′-biphenyl]-3-yl)-3-methyl-4-(quinolin-2-ylmethyl) piperazine-1-carboxamide]
- IC50 (Rat MAGL (rMAGL)): > 1 µM
- IC50 (ΔTM rat FAAH): 0.01 to 0.1 µM
- IC50 (Human MAGL (hMAGL)): > 1 µM
- IC50 (Human FAAH (MBPΔTMhFAAH)): 0.01 to 0.1 µM
- Kp [3]: 0.03

SMILES: NC(=O)c1cccc(-c2cccc(NC(=O)N3CCC(c4ccccc4)CC3)c2)c1 [Example 7, N-(3′-carbamoyl-[1,1′-biphenyl]-3-yl)-4-phenylpiperidine-1-carboxamide]
- IC50 (Rat MAGL (rMAGL)): > 1 µM
- IC50 (ΔTM rat FAAH): 0.01 to 0.1 µM
- IC50 (Human MAGL (hMAGL)): > 1 µM
- IC50 (Human FAAH (MBPΔTMhFAAH)): 0.01 to 0.1 µM
- Kp [3]: 0.17

SMILES: N#Cc1cccc(OC(=O)N2CCC(Cc3ccccc3)CC2)c1 [Example 52, 3-cyanophenyl 4-benzylpiperidine-1-carboxylate]
- amelioration of LiCl-induced anticipatory nausea [1]: ameliorated anticipatory nausea
- Mean number of gapes elicited by a LiCl-paired context [1]: 3
- IC50 (Human FAAH (MBPΔTMhFAAH)): 0.01 to 0.1 µM
- Kp [3]: 0.71

SMILES: O=C(Oc1cccc(Cl)n1)N1CCN(C(c2ccccc2)c2ccccc2)CC1 [Example 39, 6-chloropyridin-2-yl 4-benzhydrylpiperazine-1-carboxylate]
- IC50 (Rat MAGL (rMAGL)): > 1 µM
- IC50 (ΔTM rat FAAH): 0.11 to 1 µM
- IC50 (Human MAGL (hMAGL)): > 1 µM
- IC50 (Human FAAH (MBPΔTMhFAAH)): 0.11 to 1 µM

SMILES: Cc1ccc(S(=O)(=O)N2CCN(C(=O)Oc3ccc(-c4ccc(F)cc4)cc3O)CC2)cc1 [Example 66, 4′-fluoro-3-hydroxy-[1,1′-biphenyl]-4-yl 4-tosylpiperazine-1-carboxylate]
- IC50 (Rat MAGL (rMAGL)): 0.01 to 0.1 µM
- IC50 (ΔTM rat FAAH): > 1 µM
- IC50 (Human MAGL (hMAGL)): 0.01 to 0.1 µM
- IC50 (Human FAAH (MBPΔTMhFAAH)): > 1 µM

SMILES: NC(=O)c1cccc(-c2cccc(NC(=O)N3CCN(Cc4ccc(-c5ccccc5)cc4)CC3)c2)c1 [Example 10, 4-([1,1′-biphenyl]-4-ylmethyl)-N-(3′-carbamoyl-[1,1′-biphenyl]-3-yl)piperazine-1-carboxamide]
- IC50 (Rat MAGL (rMAGL)): > 1 µM
- IC50 (ΔTM rat FAAH): 0.01 to 0.1 µM
- IC50 (Human MAGL (hMAGL)): > 1 µM
- IC50 (Human FAAH (MBPΔTMhFAAH)): 0.01 to 0.1 µM

SMILES: CC(c1ccccc1)N1CCN(C(=O)Oc2cccc(C#N)c2)CC1 (centres unmarked) [Example 36, 3-cyanophenyl 4-(1-phenylethyl)piperazine-1-carboxylate]
- IC50 (Rat MAGL (rMAGL)): > 1 µM
- IC50 (ΔTM rat FAAH): 0.01 to 0.1 µM
- IC50 (Human MAGL (hMAGL)): > 1 µM
- IC50 (Human FAAH (MBPΔTMhFAAH)): 0.01 to 0.1 µM

SMILES: CC1CN(C(=O)n2cnc(-c3ccccc3)c2)CCN1c1ccccc1 (centres unmarked) [Example 24, (3-methyl-4-phenylpiperazin-1-yl)(4-phenyl-1H-imidazol-1-yl)methanone]
- IC50 (Rat MAGL (rMAGL)): > 1 µM
- IC50 (ΔTM rat FAAH): 0.01 to 0.1 µM
- IC50 (Human MAGL (hMAGL)): > 1 µM
- IC50 (Human FAAH (MBPΔTMhFAAH)): 0.11 to 1 µM

SMILES: O=C(N1CC(OCc2ccc(Br)cc2)C1)n1cnc2ccccc21 [Example 87, (1H-Benzo[d]imidazol-1-yl)(3-(4-Bromobenzyloxy)azetidin-1-yl)methanone]
- IC50 (Rat MAGL (rMAGL)): 0.01 to 0.1 µM
- IC50 (ΔTM rat FAAH): 0.01 to 0.1 µM
- IC50 (Human MAGL (hMAGL)): 0.01 to 0.1 µM
- IC50 (Human FAAH (MBPΔTMhFAAH)): 0.01 to 0.1 µM

SMILES: O=C(Nc1ccccc1)N1CC(OCc2ccc(Cl)cc2)C1 [Example 81, 3-(4-Chlorobenzyloxy)-N-phenylazetidine-1-carboxamide]
- IC50 (Rat MAGL (rMAGL)): > 1 µM
- IC50 (ΔTM rat FAAH): 0.11 to 1 µM
- IC50 (Human MAGL (hMAGL)): > 1 µM
- IC50 (Human FAAH (MBPΔTMhFAAH)): 0.11 to 1 µM

SMILES: COC(=O)c1ncn(C(=O)N2CCC(OC(c3ccc(F)cc3)c3ccc(F)cc3)CC2)n1 [Example 33, (3-(Carbomethoxy)-1H-1,2,4-triazol-1-yl)(4-(bis(4-fluorophenyl)methyoxy)pipe-ridin-1 yl)methanone]
- IC50 (Rat MAGL (rMAGL)): > 1 µM
- IC50 (ΔTM rat FAAH): > 1 µM
- IC50 (Human MAGL (hMAGL)): > 1 µM
- IC50 (Human FAAH (MBPΔTMhFAAH)): > 1 µM

SMILES: O=C1CC2(CCC(C(=O)n3cnc(Br)c3)CC2)Oc2ccccc21 (centres unmarked) [Example 34, 4′-(4-bromo-1H-imidazole-1-carbonyl)spiro[chromane-2,1′-cyclohexan]-4-one]
- IC50 (Rat MAGL (rMAGL)): > 1 µM
- IC50 (ΔTM rat FAAH): 0.01 to 0.1 µM
- IC50 (Human MAGL (hMAGL)): > 1 µM
- IC50 (Human FAAH (MBPΔTMhFAAH)): 0.01 to 0.1 µM
